In ChEMBL document CHEMBL1149262, “Monoamine transporter binding, locomotor activity, and drug discrimination properties of 3-(4-substituted-phenyl)tropane-2-carboxylic acid methyl ester isomers” (J Med Chem, 2004):
Active and inactive are the calls of the source. The rule behind the calls is not given here.

How the values were obtained:
[1] = target: Sodium-dependent serotonin transporter (Homo sapiens, UniProt P31645)
Description: Displacement of [3H]paroxetine from 5HTT

[2] = target: Sodium-dependent noradrenaline transporter (Homo sapiens, UniProt P23975); assay: Displacement of [3H]nisoxetine from NET
[3] = tested on: Mus musculus; assay: Locomotor activity in CD1 mouse assessed as stimulation at 3 mg/kg, ip after 4 hrs relative to control; assay type: functional; conditions: route intraperitoneal
[4] = tested on: Mus musculus; assay: Locomotor activity in CD1 mouse assessed as stimulation at 3 mg/kg, ip after 3 hrs relative to control; assay type: functional; conditions: route intraperitoneal
[5] = tested on: Mus musculus; assay: Locomotor activity in CD1 mouse assessed as stimulation at 30 mg/kg, ip after 4 hrs relative to control; assay type: functional; conditions: route intraperitoneal
[6] = tested on: Mus musculus; assay: Locomotor activity in ip dosed CD1 mouse after 1 hr relative to cocaine; assay type: functional
[7] = tested on: Mus musculus; assay: Locomotor activity in CD1 mouse assessed as stimulation at 10 mg/kg, ip after 1 hr relative to control; assay type: functional; conditions: route intraperitoneal
[8] = tested on: Mus musculus; assay: Locomotor activity in CD1 mouse assessed as stimulation at 1 mg/kg, ip after 4 hrs relative to control; assay type: functional; conditions: route intraperitoneal
[9] = tested on: Mus musculus; assay: Locomotor activity in CD1 mouse assessed as stimulation at 10 mg/kg, ip after 2 hrs relative to control; assay type: functional; conditions: route intraperitoneal
[10] = tested on: Mus musculus; assay: Locomotor activity in CD1 mouse assessed as stimulation at 3 mg/kg, ip after 2 hrs relative to control; assay type: functional; conditions: route intraperitoneal
[11] = tested on: Rattus norvegicus; assay: Drug discrimination effect in CD Albino rat assessed as percent of rat choosing cocaine lever at 3 mg/kg, ip; assay type: functional; conditions: route intraperitoneal
[12] = tested on: Mus musculus; assay: Activity in CD1 mouse assessed as tremor at 100 mg/kg, ip after 4 hrs; assay type: functional, organism-based; set-up: dose 100 mg/kg
[13] = tested on: Mus musculus; assay: Activity in CD1 mouse assessed as death at 100 mg/kg, ip after 4 hrs; assay type: functional, organism-based; set-up: dose 100 mg/kg
[14] = tested on: Mus musculus; assay: Locomotor activity in CD1 mouse assessed as stimulation at 30 mg/kg, ip after 3 hrs relative to control; assay type: functional; conditions: route intraperitoneal
[15] = tested on: Mus musculus; assay: Locomotor activity in CD1 mouse assessed as stimulation at 30 mg/kg, ip after 2 hrs relative to control; assay type: functional; conditions: route intraperitoneal
[16] = tested on: Mus musculus; assay: Activity in CD1 mouse assessed as slight or intermittent stereotypy at 10 mg/kg, ip after 4 hrs; assay type: functional, organism-based; set-up: dose 10 mg/kg
[17] = tested on: Rattus norvegicus; assay: Drug discrimination effect in CD Albino rat assessed as percent of rat choosing cocaine lever at 17 mg/kg, ip; assay type: functional; conditions: route intraperitoneal
[18] = target: Sodium-dependent dopamine transporter (Homo sapiens, UniProt Q01959); assay: Displacement of [3H]WIN-35428 from DAT
[19] = tested on: Mus musculus; assay: Locomotor activity in CD1 mouse assessed as stimulation at 1 mg/kg, ip after 2 hrs relative to control; assay type: functional; conditions: route intraperitoneal
[20] = tested on: Mus musculus; assay: Locomotor activity in ip dosed CD1 mouse in peak hour; assay type: functional
[21] = tested on: Mus musculus; assay: Locomotor activity in CD1 mouse assessed as stimulation at 1 mg/kg, ip after 1 hr relative to control; assay type: functional; conditions: route intraperitoneal
[22] = tested on: Rattus norvegicus; assay: Cocaine discrimination in ip dosed CD Albino rat; assay type: functional
[23] = tested on: Mus musculus; assay: Locomotor activity in CD1 mouse assessed as stimulation at 3 mg/kg, ip after 1 hr relative to control; assay type: functional; conditions: route intraperitoneal
[24] = tested on: Rattus norvegicus; assay: Drug discrimination effect in CD Albino rat assessed as percent of rat choosing cocaine lever at 10 mg/kg, ip; assay type: functional; conditions: route intraperitoneal
[25] = tested on: Mus musculus; assay: Locomotor activity in CD1 mouse assessed as stimulation at 1 mg/kg, ip after 3 hrs relative to control; assay type: functional; conditions: route intraperitoneal
[26] = tested on: Mus musculus; assay: Locomotor activity in CD1 mouse assessed as stimulation at 10 mg/kg, ip after 3 hrs relative to control; assay type: functional; conditions: route intraperitoneal
[27] = tested on: Mus musculus; assay: Activity in CD1 mouse assessed as straub tail at 100 mg/kg, ip after 4 hrs; assay type: functional, organism-based; set-up: dose 100 mg/kg
[28] = tested on: Mus musculus; assay: Locomotor activity in CD1 mouse assessed as stimulation at 10 mg/kg, ip after 4 hrs relative to control; assay type: functional; conditions: route intraperitoneal
[29] = tested on: Mus musculus; assay: Locomotor activity in CD1 mouse assessed as stimulation at 30 mg/kg, ip after 1 hr relative to control; assay type: functional; conditions: route intraperitoneal
[30] = tested on: Mus musculus; assay: Activity in CD1 mouse assessed as stereotypy at 100 mg/kg, ip after 4 hrs; assay type: functional, organism-based; set-up: dose 100 mg/kg
[31] = tested on: Mus musculus; assay: Activity in CD1 mouse assessed as hind limb splay at 100 mg/kg, ip after 4 hrs; assay type: functional, organism-based; set-up: dose 100 mg/kg; conditions: Hindlimb
[32] = tested on: Mus musculus; assay: Activity in CD1 mouse assessed as convulsions at 100 mg/kg, ip after 4 hrs; assay type: functional, organism-based; set-up: dose 100 mg/kg
[33] = tested on: Mus musculus; assay: Locomotor activity in CD1 mouse assessed as stimulation at 100 mg/kg, ip after 2 hrs relative to control; assay type: functional; conditions: route intraperitoneal
[34] = tested on: Rattus norvegicus; assay: Drug discrimination effect in CD Albino rat assessed as percent of rat choosing cocaine lever at 5.6 mg/kg, ip; assay type: functional; conditions: route intraperitoneal
[35] = tested on: Mus musculus; assay: Activity in CD1 mouse assessed as slight or intermittent hyperactivity at 100 mg/kg, ip after 4 hrs; assay type: functional, organism-based; set-up: dose 100 mg/kg
[36] = tested on: Rattus norvegicus; assay: Drug discrimination effect in CD Albino rat assessed as percent of rat choosing cocaine lever at 1 mg/kg, ip; assay type: functional; conditions: route intraperitoneal
[37] = tested on: Mus musculus; assay: Locomotor activity in CD1 mouse assessed as stimulation at 100 mg/kg, ip after 3 hrs relative to control; assay type: functional; conditions: route intraperitoneal
[38] = tested on: Mus musculus; assay: Locomotor activity in CD1 mouse assessed as stimulation at 100 mg/kg, ip after 4 hrs relative to control; assay type: functional; conditions: route intraperitoneal
[39] = tested on: Mus musculus; assay: Locomotor activity in CD1 mouse assessed as stimulation at 100 mg/kg, ip after 1 hr relative to control; assay type: functional; conditions: route intraperitoneal
[40] = tested on: Rattus norvegicus; assay: Drug discrimination effect in CD Albino rat assessed as percent of rat choosing cocaine lever at 1.7 mg/kg, ip; assay type: functional; conditions: route intraperitoneal
[41] = tested on: Mus musculus; assay: Activity in CD1 mouse assessed as circling at 100 mg/kg, ip after 4 hrs; assay type: functional, organism-based; set-up: dose 100 mg/kg
[42] = tested on: Mus musculus; assay: Activity in CD1 mouse assessed as hypoactivity at 100 mg/kg, ip after 4 hrs; assay type: functional, organism-based; set-up: dose 100 mg/kg

Chain of Sodium-dependent serotonin transporter (P31645 whole entry): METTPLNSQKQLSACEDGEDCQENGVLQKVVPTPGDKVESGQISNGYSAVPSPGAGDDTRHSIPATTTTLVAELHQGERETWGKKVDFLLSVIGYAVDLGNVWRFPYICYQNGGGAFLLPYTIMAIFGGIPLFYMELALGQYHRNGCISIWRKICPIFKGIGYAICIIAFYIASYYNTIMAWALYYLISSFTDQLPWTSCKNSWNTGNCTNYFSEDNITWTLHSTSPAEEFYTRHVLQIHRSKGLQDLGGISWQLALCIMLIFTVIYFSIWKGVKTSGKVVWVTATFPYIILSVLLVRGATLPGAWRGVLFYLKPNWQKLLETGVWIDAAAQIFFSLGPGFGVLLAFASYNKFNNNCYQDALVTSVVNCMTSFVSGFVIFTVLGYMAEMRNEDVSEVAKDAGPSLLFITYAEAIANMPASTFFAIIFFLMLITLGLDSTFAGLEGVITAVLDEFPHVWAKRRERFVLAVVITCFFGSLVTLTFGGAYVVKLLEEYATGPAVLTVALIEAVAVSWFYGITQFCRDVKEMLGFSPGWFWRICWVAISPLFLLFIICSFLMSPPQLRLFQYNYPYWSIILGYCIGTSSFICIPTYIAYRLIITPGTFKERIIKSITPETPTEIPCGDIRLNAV
Chain of Sodium-dependent noradrenaline transporter (P23975 whole entry): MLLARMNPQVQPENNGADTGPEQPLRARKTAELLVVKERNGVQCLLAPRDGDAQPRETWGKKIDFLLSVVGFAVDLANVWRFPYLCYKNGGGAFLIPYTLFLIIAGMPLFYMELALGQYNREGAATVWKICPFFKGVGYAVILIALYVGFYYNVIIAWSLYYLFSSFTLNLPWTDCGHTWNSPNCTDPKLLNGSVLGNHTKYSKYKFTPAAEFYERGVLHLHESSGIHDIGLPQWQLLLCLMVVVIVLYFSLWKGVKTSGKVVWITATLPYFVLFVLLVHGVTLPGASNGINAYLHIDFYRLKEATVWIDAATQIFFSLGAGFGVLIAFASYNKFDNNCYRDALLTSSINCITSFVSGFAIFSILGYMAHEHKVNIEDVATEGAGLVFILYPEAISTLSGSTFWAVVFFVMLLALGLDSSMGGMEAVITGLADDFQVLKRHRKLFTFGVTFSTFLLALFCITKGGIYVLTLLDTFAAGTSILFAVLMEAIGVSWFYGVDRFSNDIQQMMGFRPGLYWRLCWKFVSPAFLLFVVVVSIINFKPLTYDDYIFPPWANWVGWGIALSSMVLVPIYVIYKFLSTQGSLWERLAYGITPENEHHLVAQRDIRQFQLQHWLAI
Chain of Sodium-dependent dopamine transporter (Q01959 whole entry): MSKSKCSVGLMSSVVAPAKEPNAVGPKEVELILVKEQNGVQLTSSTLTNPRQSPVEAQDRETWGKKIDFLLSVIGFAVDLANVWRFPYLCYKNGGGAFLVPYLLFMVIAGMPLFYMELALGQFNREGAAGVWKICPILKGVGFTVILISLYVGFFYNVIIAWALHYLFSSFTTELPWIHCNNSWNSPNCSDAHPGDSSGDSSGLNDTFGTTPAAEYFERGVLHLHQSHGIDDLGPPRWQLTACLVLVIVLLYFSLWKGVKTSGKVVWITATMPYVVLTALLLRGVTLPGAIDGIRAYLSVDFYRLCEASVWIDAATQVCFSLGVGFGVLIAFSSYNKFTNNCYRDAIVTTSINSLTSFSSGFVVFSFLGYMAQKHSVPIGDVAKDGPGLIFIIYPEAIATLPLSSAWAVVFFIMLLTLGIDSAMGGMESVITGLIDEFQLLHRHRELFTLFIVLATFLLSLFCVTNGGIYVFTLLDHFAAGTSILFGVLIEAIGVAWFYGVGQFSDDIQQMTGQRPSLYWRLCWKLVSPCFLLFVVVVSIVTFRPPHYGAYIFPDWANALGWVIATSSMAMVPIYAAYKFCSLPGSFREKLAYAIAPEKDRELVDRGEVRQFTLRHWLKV

| Structure (SMILES) | IC50 [1] [nM] | Ki [1] [nM] | IC50 [2] [nM] | Ki [2] [nM] | Activity [3] [%] | Activity [4] [%] | Activity [5] [%] | Activity [7] [%] | Activity [9] [%] | Activity [10] [%] | Activity [11] [%] | Activity [14] [%] | Activity [15] [%] | ED50 [20] [mg/kg] | ED50 [22] [mg/kg] | Activity [23] [%] | Activity [24] [%] | Activity [26] [%] | Activity [28] [%] | Activity [29] [%] | other results |
| --- | --- | --- | --- | --- | --- | --- | --- | --- | --- | --- | --- | --- | --- | --- | --- | --- | --- | --- | --- | --- | --- |
| COC(=O)[C@H]1C2CCC(C[C@@H]1c1ccc(I)cc1)N2C (stereo not given in full) | 66.3 | 6 | 760 | 458 | 13 | 96 | 255 | 17 | 49 | 17 | 0 | 268 | 150 | 9.9 | 13.5 | 19 | 14 | 85 | 40 | 7 | Ratio [6]: 0.1; Activity [8]: 41%; Activity [12]: Active; Activity [13]: Active; Activity [16]: Active; Activity [17]: 80%; IC50 [18]: 22.7 nM; Activity [19]: 44%; Activity [21]: 0%; Activity [25]: 99%; Activity [27]: Active; Activity [30]: Active; Activity [31]: Active; Activity [32]: Active |
| COC(=O)[C@@H]1C2CCC(C[C@H]1c1ccc(I)cc1)N2C (stereo not given in full) | 64.9 | 5.9 | 52.4 | 32 | -42 | 64 | 25 | 210 | 100 | -72 | 43 | 391 | 121 | 7.7 | 4.72 | 14 | 86 | 457 | 49 | 308 | Activity [33]: 168%; Activity [34]: 44%; Ratio [6]: 1; Activity [35]: Active; Activity [36]: 0%; IC50 [18]: 2.9 nM; Activity [37]: 692%; Activity [38]: 124%; Activity [39]: 328%; Activity [40]: 14% |
| COC(=O)[C@H]1C2CCC(C[C@@H]1c1ccc(F)cc1)N2C (stereo not given in full) | > 10000 | – | 7200 | 4340 | 19 | 120 | 127 | 58 | 107 | 58 | 0 | 298 | 207 | 2.4 | 8.01 | 15 | 57 | 260 | 196 | 24 | Activity [34]: 33%; Activity [8]: 28%; Activity [12]: Active; Activity [16]: Active; Activity [17]: 100%; Activity [19]: 5%; Activity [21]: -10%; Activity [41]: Active; Activity [42]: Active; Activity [25]: 52%; Activity [30]: Active; Activity [32]: Active |
